Test [1] deals with T1, HiBit-BRG1 fusion protein (Homo sapiens, UniProt P51532).
T1 construct: expressed in transfected cells
Put plainly: HiBiT-BRG1 cell-based degradation assay (Nano-Glo HiBiT Lytic Detection, 24 h). The following applies: HeLa cells expressing HiBit-BRG1 and LgBit; for DC50: read-out: BRG1 HiBit Degradation IC50; for Dmax: HeLa, top dose 30 μM, read-out: BRG1 HiBit Degradation Maximum measured. As to the method:
Procedure: A stable HeLa cell line expressing HiBiT-BRM was generated. On day 0, 5000 cells were seeded in 40 μL of media into each well of 384-well cell culture plates. […] Nano-Glo HiBiT Lytic Detection System (Promega N3050) reagent was freshly prepared and 20 ul was added to each well. Upon addition of this LgBit-containing reagent, the HiBiT and LgBiT proteins associate to form the luminescent NanoBiT luciferase. The plates were shaken for 10 minutes at room temperature and the bioluminescence read using an EnVision plate reader (PerkinElmer).
For measurement of BRG1 degradation, a stable HeLa cell line expressing HiBit-BRG1 and LgBit was generated. The same protocol as above was then followed.
(§1) The degradation % was calculated using the following formula: % degradation=100%−100%×(LumSample−LumLC)/(LumHC−LumLC). DMSO treated cells are employed as High Control (HC) and 2 μM of a known BRM/BRG1 degrader standard treated cells are employed as Low Control (LC).
On the technique in general: HiBiT is a short tag that completes a luciferase, so light tracks the accessible tagged protein.

The next test concerns the target T2, HiBit-BRM fusion protein (Homo sapiens, UniProt P51531).
T2 construct: expressed in transfected cells
Description: HiBiT-BRM cell-based degradation assay (Nano-Glo HiBiT Lytic Detection, 24 h). The following applies: HeLa cells expressing HiBiT-BRM; for DC50: read-out: BRM HiBit Degradation IC50; for BRM HiBit Degradation Maximum measured: top dose 30 μM. The procedure: Procedure: A stable HeLa cell line expressing HiBiT-BRM was generated. On day 0, 5000 cells were seeded in 40 μL of media into each well of 384-well cell culture plates. On day 1, cells were treated with 120 nL DMSO or 120 nL of 3-fold serially DMSO-diluted compounds (10 points in duplicate with 30 μM as final top dose). Subsequently plates were incubated for 24 h in a standard tissue culture incubator and equilibrated at room temperature for 15 minutes. Nano-Glo HiBiT Lytic Detection System (Promega N3050) reagent was freshly prepared and 20 ul was added to each well. Upon addition of this LgBit-containing reagent, the HiBiT and LgBiT proteins associate to form the luminescent NanoBiT luciferase. The plates were shaken for 10 minutes at room temperature and the bioluminescence read using an EnVision plate reader (PerkinElmer).
as §1

Each structure is given as a SMILES string. Structures can show the parent of a compound that is named as a salt.

T2 sequence (P51531 whole entry, the tested form may be a part): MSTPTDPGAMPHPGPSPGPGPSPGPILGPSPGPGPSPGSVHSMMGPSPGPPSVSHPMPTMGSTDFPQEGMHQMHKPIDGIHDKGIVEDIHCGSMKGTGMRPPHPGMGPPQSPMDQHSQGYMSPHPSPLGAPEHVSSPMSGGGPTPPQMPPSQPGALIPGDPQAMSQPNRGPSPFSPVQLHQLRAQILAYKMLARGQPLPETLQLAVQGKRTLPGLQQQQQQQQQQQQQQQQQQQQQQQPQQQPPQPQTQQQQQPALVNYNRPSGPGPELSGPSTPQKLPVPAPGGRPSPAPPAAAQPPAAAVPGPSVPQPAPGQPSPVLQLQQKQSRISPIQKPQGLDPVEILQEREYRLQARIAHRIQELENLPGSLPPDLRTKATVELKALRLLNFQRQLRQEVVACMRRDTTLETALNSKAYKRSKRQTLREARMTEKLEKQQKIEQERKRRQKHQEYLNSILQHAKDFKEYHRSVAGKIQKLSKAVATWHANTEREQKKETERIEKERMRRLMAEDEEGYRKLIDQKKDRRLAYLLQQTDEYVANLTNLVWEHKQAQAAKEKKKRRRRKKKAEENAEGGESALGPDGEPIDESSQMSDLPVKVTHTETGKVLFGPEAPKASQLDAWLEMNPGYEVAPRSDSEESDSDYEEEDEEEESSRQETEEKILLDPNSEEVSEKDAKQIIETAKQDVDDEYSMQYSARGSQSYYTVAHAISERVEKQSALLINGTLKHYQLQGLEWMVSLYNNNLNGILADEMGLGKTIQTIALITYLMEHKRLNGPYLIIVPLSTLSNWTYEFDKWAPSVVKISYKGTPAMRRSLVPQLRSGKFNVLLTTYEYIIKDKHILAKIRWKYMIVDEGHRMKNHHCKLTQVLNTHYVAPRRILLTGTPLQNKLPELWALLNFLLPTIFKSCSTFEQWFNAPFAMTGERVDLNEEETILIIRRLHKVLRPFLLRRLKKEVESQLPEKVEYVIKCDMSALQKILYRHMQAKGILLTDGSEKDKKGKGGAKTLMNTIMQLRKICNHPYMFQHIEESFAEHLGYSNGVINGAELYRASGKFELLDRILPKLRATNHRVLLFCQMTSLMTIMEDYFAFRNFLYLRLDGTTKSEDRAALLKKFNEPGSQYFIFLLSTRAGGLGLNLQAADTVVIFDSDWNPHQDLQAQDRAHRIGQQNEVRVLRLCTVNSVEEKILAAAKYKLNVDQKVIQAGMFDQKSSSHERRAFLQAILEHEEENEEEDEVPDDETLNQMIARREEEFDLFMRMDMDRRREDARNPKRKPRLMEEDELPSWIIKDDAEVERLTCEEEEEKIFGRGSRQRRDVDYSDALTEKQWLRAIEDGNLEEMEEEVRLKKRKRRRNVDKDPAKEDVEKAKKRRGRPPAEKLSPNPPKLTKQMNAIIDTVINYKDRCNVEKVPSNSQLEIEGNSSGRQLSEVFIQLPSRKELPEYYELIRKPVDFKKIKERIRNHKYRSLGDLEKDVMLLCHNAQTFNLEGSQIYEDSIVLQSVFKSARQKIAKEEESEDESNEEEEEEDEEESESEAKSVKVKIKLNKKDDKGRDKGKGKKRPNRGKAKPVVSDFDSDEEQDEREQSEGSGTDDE
T1 sequence (P51532 whole entry, the tested form may be a part): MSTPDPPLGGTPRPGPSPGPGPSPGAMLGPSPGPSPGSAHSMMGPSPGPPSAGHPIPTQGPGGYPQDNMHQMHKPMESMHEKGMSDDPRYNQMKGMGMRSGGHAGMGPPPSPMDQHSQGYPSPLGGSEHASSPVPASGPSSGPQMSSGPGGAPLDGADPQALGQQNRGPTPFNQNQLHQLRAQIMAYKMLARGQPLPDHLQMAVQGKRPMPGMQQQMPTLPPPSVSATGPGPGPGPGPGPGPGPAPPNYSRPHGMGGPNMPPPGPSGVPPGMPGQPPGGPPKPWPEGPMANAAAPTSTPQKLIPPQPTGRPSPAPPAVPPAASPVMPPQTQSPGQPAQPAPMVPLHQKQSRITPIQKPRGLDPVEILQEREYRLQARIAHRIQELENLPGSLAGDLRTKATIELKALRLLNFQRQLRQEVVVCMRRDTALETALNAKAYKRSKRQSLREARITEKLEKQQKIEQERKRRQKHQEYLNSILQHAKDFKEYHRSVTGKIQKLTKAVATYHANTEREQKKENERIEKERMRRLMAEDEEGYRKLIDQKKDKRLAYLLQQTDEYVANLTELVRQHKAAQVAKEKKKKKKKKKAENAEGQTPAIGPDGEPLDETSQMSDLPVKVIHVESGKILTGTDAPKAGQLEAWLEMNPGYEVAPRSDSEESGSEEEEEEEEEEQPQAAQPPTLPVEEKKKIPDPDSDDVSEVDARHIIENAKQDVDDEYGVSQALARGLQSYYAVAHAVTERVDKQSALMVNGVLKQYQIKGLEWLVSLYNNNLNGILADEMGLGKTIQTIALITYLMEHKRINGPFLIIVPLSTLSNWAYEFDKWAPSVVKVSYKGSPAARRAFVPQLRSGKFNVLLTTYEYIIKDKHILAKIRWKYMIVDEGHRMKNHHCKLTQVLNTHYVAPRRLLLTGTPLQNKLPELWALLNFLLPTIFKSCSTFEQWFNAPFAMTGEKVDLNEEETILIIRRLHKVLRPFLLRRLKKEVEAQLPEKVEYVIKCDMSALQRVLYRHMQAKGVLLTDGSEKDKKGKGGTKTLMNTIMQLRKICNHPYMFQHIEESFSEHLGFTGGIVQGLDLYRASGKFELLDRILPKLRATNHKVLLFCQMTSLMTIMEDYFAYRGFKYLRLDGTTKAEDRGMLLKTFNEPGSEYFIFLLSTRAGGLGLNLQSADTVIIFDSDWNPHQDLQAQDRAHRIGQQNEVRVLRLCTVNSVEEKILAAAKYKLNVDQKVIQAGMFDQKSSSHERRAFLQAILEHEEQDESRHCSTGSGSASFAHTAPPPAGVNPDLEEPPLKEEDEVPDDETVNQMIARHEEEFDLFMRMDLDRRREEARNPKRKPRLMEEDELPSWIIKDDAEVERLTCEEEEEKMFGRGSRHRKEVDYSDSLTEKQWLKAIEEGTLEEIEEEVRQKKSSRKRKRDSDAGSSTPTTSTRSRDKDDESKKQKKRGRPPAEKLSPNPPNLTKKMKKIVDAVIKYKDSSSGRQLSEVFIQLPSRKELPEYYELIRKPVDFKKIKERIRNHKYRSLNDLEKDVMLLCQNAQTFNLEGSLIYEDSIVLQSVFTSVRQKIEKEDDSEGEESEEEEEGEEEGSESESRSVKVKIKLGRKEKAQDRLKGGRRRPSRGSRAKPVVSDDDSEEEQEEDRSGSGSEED

As for `Cc1ncsc1-c1ccc(CNC(=O)[C@@H]2C[C@@H](O)CN2C(=O)[C@@H](NC(=O)COCCOCCNC(=O)C2(c3cc(-c4cccc(-c5csc(NC(=O)CNC(=O)c6ccn(S(C)(=O)=O)c6)n5)c4)ccn3)CC2)C(C)(C)C)cc1` [Compound 108, N-[2-[[4-[3-[2-[1-[2-[2-[2-[[(1S)-1-[(2S,4R)-4-hydroxy-2-[[4-(4-methylthiazol-5-yl)phenyl]methylcarbamoyl]pyrrolidine-1-carbonyl]-2,2-dimethyl-propyl]amino]-2-oxo-ethoxy]ethoxy]ethylcarbamoyl]cyclopropyl]-4-pyridyl]phenyl]thiazol-2-yl]amino]-2-oxo-ethyl]-1-methylsulfonyl-pyrrole-3-carboxamide], in test [1], the DC50 fell in the range of 0.1 to 1 µM and the Dmax was more than 75%. Besides, on HiBit-BRM fusion protein, the DC50 was 0.1 to 1 µM and the “BRM HiBit Degradation Maximum measured” value is reported as “A (‘A’ = Maximum degradation >75%)”.
On to `CS(=O)(=O)n1ccc(C(=O)NCC(=O)Nc2nc(-c3cccc(-c4ccn(CC(=O)NCCCCCNc5cccc6c5C(=O)N(C5CCC(=O)NC5=O)C6=O)n4)c3)cs2)c1` (centres unmarked) [Compound 2, N-[2-[[4-[3-[1-[2-[5-[[2-(2,6-dioxo-3-piperidyl)-1,3-dioxoisoindolin-4-yl]amino]pentylamino]-2-oxo-ethyl]pyrazol-3-yl]phenyl]thiazol-2-yl]amino]-2-oxo-ethyl]-1-methylsulfonylpyrrole-3-carboxamide], for which, in test [1], the DC50 is more than 10 µM and the Dmax is less than 50%. For the same compound, on HiBit-BRM fusion protein, the DC50 was more than 10 µM and the “BRM HiBit Degradation Maximum measured” value is given as “C (‘C’ = Maximum degradation <50%)”.
For `CC(C)(C(=O)NCCOCCOCCNc1cccc2c1C(=O)N(C1CCC(=O)NC1=O)C2=O)n1ccc(-c2cccc(-c3csc(NC(=O)CNC(=O)c4ccn(S(C)(=O)=O)c4)n3)c2)n1` (centres unmarked) [Compound 6, N-(2-((4-(3-(1-(1-((2-(2-(2-((2-(2,6-dioxopiperidin-3-yl)-1,3-dioxoisoindolin-4-yl)amino)ethoxy)ethoxy)ethyl)amino)-2-methyl-1-oxopropan-2-yl)-1H-pyrazol-3-yl)phenyl)thiazol-2-yl)amino)-2-oxoethyl)-1-(methylsulfonyl)-1H-pyrrole-3-carboxamide], in test [1], the DC50 is more than 10 µM and the Dmax is less than 50%. Moreover, on HiBit-BRM fusion protein, the DC50 was more than 10 µM and the “BRM HiBit Degradation Maximum measured” value is given as “C (‘C’ = Maximum degradation <50%)”.
For the compound `CS(=O)(=O)n1ccc(C(=O)N[C@@H](COCc2ccc(C(=O)N3CC4(CCN(CCCNc5ccc6c(c5)C(=O)N(C5CCC(=O)NC5=O)C6=O)CC4)C3)cc2)C(=O)Nc2nc(-c3ccccc3)cs2)c1` (stereo partly drawn) [Compound 234, (2S)-3-([4-[7-(3-[[2-(2,6-dioxopiperidin-3-yl)-1,3-dioxoisoindol-5-yl]amino]propyl)-2,7-diazaspiro[3.5]nonane-2-carbonyl]phenyl]methoxy)-2-[(1-methanesulfonylpyrrol-3-yl)formamido]-N-(4-phenyl-1,3-thiazol-2-yl)propanamide], in test [1], the DC50 lay in the range of 0.1 to 1 µM and the Dmax fell in the range of 50 to 75%. Also, at HiBit-BRM fusion protein, the DC50 lay in the range of 0.1 to 1 µM; the “BRM HiBit Degradation Maximum measured” value was “B (‘B’ = Maximum degradation ≥50% and ≤75%)”.
For the compound `CS(=O)(=O)n1ccc(C(=O)NCC(=O)Nc2nc(-c3cccc(-c4ccnc(C5(C(=O)NCCOCCOCCNc6cccc7c6C(=O)N(C6CCC(=O)NC6=O)C7=O)CC5)c4)c3)cs2)c1` (centres unmarked) [Compound 11, N-[2-[[4-[3-[2-[1-[2-[2-[2-[[2-(2,6-dioxo-3-piperidyl)-1,3-dioxo-isoindolin-4-yl]amino]ethoxy]ethoxy]ethylcarbamoyl]cyclopropyl]-4-pyridyl]phenyl]thiazol-2-yl]amino]-2-oxo-ethyl]-1-methylsulfonylpyrrole-3-carboxamide], in test [1], the DC50 lay in the range of 1 to 10 µM and the Dmax fell in the range of 50 to 75%. Also, at HiBit-BRM fusion protein, the DC50 was more than 10 µM and the “BRM HiBit Degradation Maximum measured” value is recorded as “C (‘C’ = Maximum degradation <50%)”.
On the same counts, the results for `CS(=O)(=O)n1ccc(C(=O)NCC(=O)Nc2nc(-c3cccc(-c4ccnc(OCCNC(=O)C5CC5CNC(=O)COc5cccc6c5C(=O)N(C5CCC(=O)NC5=O)C6=O)c4)c3)cs2)c1` (centres unmarked) [Compound 37, N-[2-[[4-[3-[2-[2-[[2-[[[2-[2-(2,6-dioxo-3-piperidyl)-1,3-dioxoisoindolin-4-yl]oxyacetyl]amino]methyl]cyclopropanecarbonyl]amino]ethoxy]-4-pyridyl]phenyl]thiazol-2-yl]amino]-2-oxoethyl]-1-methylsulfonyl-pyrrole-3-carboxamide] are more than 10 µM, less than 50%, more than 10 µM and “C (‘C’ = Maximum degradation <50%)”.
In the case of `CS(=O)(=O)n1ccc(C(=O)N[C@@H](COCc2ccc(C(=O)N3CC(CN4CCN(c5ccc6c(c5)C(=O)N(C5CCC(=O)NC5=O)C6=O)CC4)C3)cc2)C(=O)Nc2nc(-c3ccccc3)cs2)c1` (stereo partly drawn) [Compound 193, (2S)-3-([4-[3-([4-[2-(2,6-dioxopiperidin-3-yl)-1,3-dioxoisoindol-5-yl]piperazin-1-yl]methyl)azetidine-1-carbonyl]phenyl]methoxy)-2-[(1-methanesulfonylpyrrol-3-yl)formamido]-N-(4-phenyl-1,3-thiazol-2-yl)propanamide; formic acid], in test [1], the DC50 lay in the range of 0.1 to 1 µM and the Dmax is more than 75%. Further, at HiBit-BRM fusion protein, the DC50 fell in the range of 0.1 to 1 µM; the “BRM HiBit Degradation Maximum measured” value was “B (‘B’ = Maximum degradation ≥50% and ≤75%)”.
Regarding `Cc1ncsc1-c1ccc(CNC(=O)[C@@H]2C[C@@H](O)CN2C(=O)[C@@H](NC(=O)CCCCCCCNC(=O)CCCOCC[C@H](NC(=O)c2ccn(S(C)(=O)=O)c2)C(=O)Nc2nc(-c3ccccc3)cs2)C(C)(C)C)cc1` [Compound 218, (2S,4R)-4-hydroxy-1-[(2S)-2-(8-[4-[(3S)-3-[(1-methanesulfonylpyrrol-3-yl)formamido]-3-[(4-phenyl-1,3-thiazol-2-yl)carbamoyl]propoxy]butanamido]octanamido)-3,3-dimethylbutanoyl]-N-[[4-(4-methyl-1,3-thiazol-5-yl)phenyl]methyl]pyrrolidine-2-carboxamide], in test [1], the DC50 is more than 10 µM and the Dmax was less than 50%. Besides, on HiBit-BRM fusion protein, the DC50 is more than 10 µM and the “BRM HiBit Degradation Maximum measured” value was “C (‘C’ = Maximum degradation <50%)”.
Consider `Cc1ncsc1-c1ccc(CNC(=O)[C@@H]2C[C@@H](O)CN2C(=O)[C@@H](NC(=O)CCN2CCC(C(=O)NCc3cccc(-c4cccc(-c5csc(NC(=O)CNC(=O)c6ccn(S(C)(=O)=O)c6)n5)c4)c3)CC2)C(C)(C)C)cc1` [Compound 155, 1-(2-[[(2S)-1-[(2S,4R)-4-hydroxy-2-([[4-(4-methyl-1,3-thiazol-5-yl)phenyl]methyl]carbamoyl)pyrrolidin-1-yl]-3,3-dimethyl-1-oxobutan-2-yl]carbamoyl]ethyl)-N-[[3-(2-[2-[(1-methanesulfonylpyrrol-3-yl)formamido]acetamido]-1,3-thiazol-4-yl)-[1,1-biphenyl]-3-yl]methyl]piperidine-4-carboxamide formate], for which the DC50 (in test [1]; on HiBit-BRM fusion protein) was more than 10 µM in each case. Further, the “BRM HiBit Degradation Maximum measured” value at HiBit-BRM fusion protein is given as “C (‘C’ = Maximum degradation <50%)”.
`CS(=O)(=O)n1ccc(C(=O)N[C@@H](CCOCCCC(=O)N2CC(COc3ccc4c(c3)C(=O)N(C3CCC(=O)NC3=O)C4=O)C2)C(=O)Nc2nc(-c3ccccc3)cs2)c1` (stereo partly drawn) [Compound 260, (2S)-4-[4-[3-([[2-(2,6-dioxopiperidin-3-yl)-1,3-dioxoisoindol-5-yl]oxy]methyl)azetidin-1-yl]-4-oxobutoxy]-2-[(1-methanesulfonylpyrrol-3-yl)formamido]-N-(4-phenyl-1,3-thiazol-2-yl)butanamide]: in test [1], the DC50 was more than 10 µM and the Dmax is less than 50%. Further, at HiBit-BRM fusion protein, the DC50 is more than 10 µM and the “BRM HiBit Degradation Maximum measured” value is listed as “C (‘C’ = Maximum degradation <50%)”.
In the case of `CC(C)(C(=O)NCCCCCNc1cccc2c1C(=O)N(C1CCC(=O)NC1=O)C2=O)n1ccc(-c2cccc(-c3csc(NC(=O)CNC(=O)c4ccn(S(C)(=O)=O)c4)n3)c2)n1` (centres unmarked) [Compound 7, N-[2-[[4-[3-[1-[2-[5-[[2-(2,6-dioxo-3-piperidyl)-1,3-dioxo-isoindolin-4-yl]amino]pentylamino]-1,1-dimethyl-2-oxo-ethyl]pyrazol-3-yl]phenyl]thiazol-2-yl]amino]-2-oxo-ethyl]-1-methylsulfonyl-pyrrole-3-carboxamide], in test [1], the DC50 was more than 10 µM and the Dmax was less than 50%. At HiBit-BRM fusion protein, the DC50 was more than 10 µM and the “BRM HiBit Degradation Maximum measured” value is recorded as “C (‘C’ = Maximum degradation <50%)”.
With `Cc1ncsc1-c1ccc(CNC(=O)[C@@H]2C[C@@H](O)CN2C(=O)[C@@H](NC(=O)CCCCCCCCCCCC(=O)NCc2cccc(-c3cccc(-c4csc(NC(=O)CNC(=O)c5ccn(S(C)(=O)=O)c5)n4)c3)c2)C(C)(C)C)cc1` [Compound 114], the Dmax in test [1] is more than 75%.

The values are drawn from US12662479B2 (Foghorn Therapeutics Inc., priority 2020, dated 2026).
